Data from patent publication US20230295087A1, “AGONISTS OF ROR GAMMAt” (BRISTOL-MYERS SQUIBB COMPANY, priority 2019, published 2023).

Molecular target: T1, human RORgT (Homo sapiens, UniProt P51449)
T1 construct: expressed in transfected cells
T1 sequence (P51449 267-516): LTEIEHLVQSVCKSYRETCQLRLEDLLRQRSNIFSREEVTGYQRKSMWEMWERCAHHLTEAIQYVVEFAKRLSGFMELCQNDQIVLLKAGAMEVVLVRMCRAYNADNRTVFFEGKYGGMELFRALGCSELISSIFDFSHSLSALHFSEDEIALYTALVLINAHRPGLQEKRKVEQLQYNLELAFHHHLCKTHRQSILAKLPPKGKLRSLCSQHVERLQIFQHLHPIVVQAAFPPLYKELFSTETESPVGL
Experiment: RORgT Gal4 Luciferase Reporter Gene Assay
Assay type: cell-based
Details: engineered Jurkat cells overexpressing RORgT (LBD or full length) fused with Gal4 Luc reporter; 18 hours at 37° C.; luminescence
Outline: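 Jurkat cells expressing Gal4 Luc with either RORgT LBD (aa267-516) or full-length human RORgT, 10,000 cells/well, treated with compound (40 µM to 0.67 nM final, 3-fold dilutions) for 18 h at 37° C. Steady-Glo luminescence read; inhibition of constitutive activity as % signal-window reduction relative to a control compound.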

EC50	Compound
0.0085 µM	O=C(C1CCS(=O)(=O)CC1)N1CC[C@@]2(S(=O)(=O)c3ccccc3)c3ccc(OCc4c(Cl)cccc4Cl)cc3CC[C@@H]12 [Example 126, 4-[(3aR,9bR)-9b-(benzenesulfonyl)-7-[(2,6-dichlorophenyl)methoxy]-1H,2H,3H,3aH,4H,5H,9bH-benzo[e]indole-3-carbonyl]-1λ^6-thiane-1,1-dione]
0.012 µM	O=C(C1CCS(=O)(=O)CC1)N1CC[C@@]2(S(=O)(=O)c3ccccc3)c3ccc(OCc4ccccc4Cl)cc3CC[C@@H]12 [Example 127, 4-[(3aR,9bR)-9b-(benzenesulfonyl)-7-[(2-chlorophenyl)methoxy]-1H,2H,3H,3aH,4H,5H,9bH-benzo[e]indole-3-carbonyl]-1λ^6-thiane-1,1-dione]
0.013 µM	O=C(C1CCS(=O)(=O)CC1)N1CC[C@@]2(S(=O)(=O)c3ccc(F)cc3)c3ccc(OCc4c(Cl)cccc4Cl)cc3CC[C@@H]12 [Example 128, 4-[(3aR,9bR)-7-[(2,6-dichlorophenyl)methoxy]-9b-(4-fluorobenzenesulfonyl)-1H,2H,3H,3aH,4H,5H,9bH-benzo[e]indole-3-carbonyl]-1λ^6-thiane-1,1-dione]
0.017 µM	O=C(C1CCS(=O)(=O)CC1)N1CC[C@@]2(S(=O)(=O)c3ccccc3)c3ccc(OCc4cc(Cl)ccc4Cl)cc3CC[C@@H]12 [Example 129, 4-[(3aR,9bR)-9b-(benzenesulfonyl)-7-[(2,5-dichlorophenyl)methoxy]-1H,2H,3H,3aH,4H,5H,9bH-benzo[e]indole-3-carbonyl]-1λ^6-thiane-1,1-dione]
0.012 µM	O=C(C1CCS(=O)(=O)CC1)N1CC[C@@]2(S(=O)(=O)c3ccccc3)c3ccc(OCc4cc(F)ccc4Cl)cc3CC[C@@H]12 [Example 130, 4-[(3aR,9bR)-9b-(benzenesulfonyl)-7-[(2-chloro-5-fluorophenyl)methoxy]-1H,2H,3H,3aH,4H,5H,9bH-benzo[e]indole-3-carbonyl]-1λ^6-thiane-1,1-dione]
0.0086 µM	O=C(C1CCS(=O)(=O)CC1)N1CC[C@@]2(S(=O)(=O)c3ccccc3)c3ccc(OCc4c(F)ccc(F)c4Cl)cc3CC[C@@H]12 [Example 131, 4-[(3aR,9bR)-9b-(benzenesulfonyl)-7-[(2-chloro-3,6-difluorophenyl)methoxy]-1H,2H,3H,3aH,4H,5H,9bH-benzo[e]indole-3-carbonyl]-1λ^6-thiane-1,1-dione]
0.0095 µM	O=C(C1CCS(=O)(=O)CC1)N1CC[C@@]2(S(=O)(=O)c3ccccc3)c3ccc(OCc4c(F)cccc4C(F)(F)F)cc3CC[C@@H]12 [Example 132, 4-[(3aR,9bR)-9b-(benzenesulfonyl)-7-{[2-fluoro-6-(trifluoromethyl)phenyl]methoxy}-1H,2H,3H,3aH,4H,5H,9bH-benzo[e]indole-3-carbonyl]-1λ^6-thiane-1,1-dione]
0.017 µM	O=C(C1CCS(=O)(=O)CC1)N1CC[C@@]2(S(=O)(=O)c3ccccc3)c3ccc(OCc4c(F)cccc4F)cc3CC[C@@H]12 [Example 133, 4-[(3aR,9bR)-9b-(benzenesulfonyl)-7-[(2,6-difluorophenyl)methoxy] -1H,2H,3H,3aH,4H,5H,9bH-benzo[e]indole-3-carbonyl]-1λ^6-thiane-1,1-dione]
0.022 µM	O=C(C1CCS(=O)(=O)CC1)N1CC[C@@]2(S(=O)(=O)c3ccccc3)c3ccc(OCc4ccc(F)cc4Cl)cc3CC[C@@H]12 [Example 134, 4-[(3aR,9bR)-9b-(benzenesulfonyl)-7-[(2-chloro-4-fluorophenyl)methoxy]-1H,2H,3H,3aH,4H,5H,9bH-benzo[e]indole-3-carbonyl]-1λ^6-thiane-1,1-dione]
0.0097 µM	O=C(C1CCS(=O)(=O)C1)N1CC[C@@]2(S(=O)(=O)c3ccccc3)c3ccc(OCc4c(F)cccc4Cl)cc3CC[C@@H]12 (stereo partly drawn) [Example 135, 3-[(3aR,9bR)-9b-(benzenesulfonyl)-7-[(2-chloro-6-fluorophenyl)methoxy]-1H,2H,3H,3aH,4H,5H,9bH-benzo[e]indole-3-carbonyl]-1λ^6-thiolane-1,1-dione]
0.016 µM	CC(=O)N1CCC(C(=O)N2CC[C@@]3(S(=O)(=O)c4ccccc4)c4ccc(OCc5c(F)cccc5Cl)cc4CC[C@@H]23)CC1 [Example 136, 1-{4-[(3aR,9bR)-9b-(benzenesulfonyl)-7-[(2-chloro-6-fluorophenyl)methoxy]-1H,2H,3H,3aH,4H,5H,9bH-benzo[e]indole-3-carbonyl]piperidin-1-yl}ethan-1-one]
0.0088 µM	CS(=O)(=O)N1CCC(C(=O)N2CC[C@@]3(S(=O)(=O)c4ccccc4)c4ccc(OCc5c(F)cccc5Cl)cc4CC[C@@H]23)CC1 [Example 137, 4-[(3aR,9bR)-9b-(benzenesulfonyl)-7-[(2-chloro-6-fluorophenyl)methoxy]-1H,2H,3H,3aH,4H,5H,9bH-benzo[e]indole-3-carbonyl]-1-methanesulfonylpiperidine]
0.0088 µM	O=C1CC[C@@H](C(=O)N2CC[C@@]3(S(=O)(=O)c4ccccc4)c4ccc(OCc5c(F)cccc5Cl)cc4CC[C@@H]23)N1 [Example 138, (5S)-5-[(3aR,9bR)-9b-(benzenesulfonyl)-7-[(2-chloro-6-fluorophenyl)methoxy]-1H,2H,3H,3aH,4H,5H,9bH-benzo[e]indole-3-carbonyl]pyrrolidin-2-one]

Second part, the compound before the results:

Compound	EC50
O=C(O)[C@H]1CC[C@H](C(=O)N2CC[C@@]3(S(=O)(=O)c4ccc(F)cc4)c4ccc(Oc5c(F)ccnc5F)cc4CC[C@@H]23)CC1 [Example 115, (1r,4r)-4-[(3aR,9bR)-7-[(2,4-difluoropyridin-3-yl)oxy]-9b-(4-fluorobenzenesulfonyl)-1H,2H,3H,3aH,4H,5H,9bH-benzo[e]indole-3-carbonyl]cyclohexane-1-carboxylic acid]	0.025 µM
O=C(O)[C@H]1CC[C@H](C(=O)N2CC[C@@]3(S(=O)(=O)c4ccc(F)cc4)c4ccc(Oc5cccnc5F)cc4CC[C@@H]23)CC1 [Example 116, (1r,4r)-4-[(3aR,9bR)-9b-(4-fluorobenzenesulfonyl)-7-[(2-fluoropyridin-3-yl)oxy]-1H,2H,3H,3aH,4H,5H,9bH-benzo[e]indole-3-carbonyl]cyclohexane-1-carboxylic acid]	0.051 µM
O=C(C1CCS(=O)(=O)CC1)N1CC[C@@]2(S(=O)(=O)c3ccc(F)cc3)c3ccc(Oc4cccnc4F)cc3CC[C@@H]12 [Example 117, 4-[(3aR,9bR)-9b-(4-fluorobenzenesulfonyl)-7-[(2-fluoropyridin-3-yl)oxy]-1H,2H,3H,3aH,4H,5H,9bH-benzo[e]indole-3-carbonyl]-1λ^6-thiane-1,1-dione]	0.0071 µM
O=C(C1CCS(=O)(=O)CC1)N1CC[C@@]2(S(=O)(=O)c3ccc(F)cc3)c3ccc(Sc4c(Cl)cccc4Cl)cc3CC[C@@H]12 [Example 118, 4-[(3aR,9bR)-7-[(2,6-dichlorophenyl)sulfanyl]-9b-(4-fluorobenzenesulfonyl)-1H,2H,3H,3aH,4H,5H,9bH-benzo[e]indole-3-carbonyl]-1λ^6-thiane-1,1-dione]	0.0013 µM
O=C(O)[C@H]1CC[C@H](C(=O)N2CC[C@@]3(S(=O)(=O)c4ccc(F)cc4)c4ccc(Sc5c(Cl)cccc5Cl)cc4CC[C@@H]23)CC1 [Example 119, (1r,4r)-4-[(3aR,9bR)-7-[(2,6-dichlorophenyl)sulfanyl]-9b-(4-fluorobenzenesulfonyl)-1H,2H,3H,3aH,4H,5H,9bH-benzo[e]indole-3-carbonyl]cyclohexane-1-carboxylic acid]	0.0014 µM
O=C(O)[C@H]1CC[C@H](C(=O)N2CC[C@@]3(S(=O)(=O)c4ccc(F)cc4)c4ccc(OCc5ccccc5)cc4CC[C@@H]23)CC1 [Example 120, (1r,4r)-4-[(3aR,9bR)-7-(benzyloxy)-9b-(4-fluorobenzenesulfonyl)-1H,2H,3H,3aH,4H,5H,9bH-benzo[e]indole-3-carbonyl]cyclohexane-1-carboxylic acid]	0.018 µM
O=C(O)[C@H]1CC[C@H](C(=O)N2CC[C@@]3(S(=O)(=O)c4ccc(F)cc4)c4ccc(OCc5c(Cl)cccc5Cl)cc4CC[C@@H]23)CC1 [Example 121, (1r,4r)-4-[(3aR,9bR)-7-[(2,6-dichlorophenyl)methoxy]-9b-(4-fluorobenzenesulfonyl)-1H,2H,3H,3aH,4H,5H,9bH-benzo[e]indole-3-carbonyl]cyclohexane-1-carboxylic acid]	0.0097 µM
NS(=O)(=O)CC(=O)N1CC[C@@]2(S(=O)(=O)c3ccc(F)cc3)c3ccc(OCc4c(Cl)cccc4Cl)cc3CC[C@@H]12 [Example 122, 2-[(3aR,9bR)-7-[(2,6-dichlorophenyl)methoxy]-9b-(4-fluorobenzenesulfonyl)-1H,2H,3H,3aH,4H,5H,9bH-benzo[e]indol-3-yl]-2-oxoethane-1-sulfonamide]	0.127 µM
O=C(C1CCS(=O)(=O)CC1)N1CC[C@@]2(S(=O)(=O)c3ccccc3)c3ccc(OCc4c(F)cccc4Cl)cc3CC[C@@H]12 [Example 123, 4-[(3aR,9bR)-9b-(benzenesulfonyl)-7-[(2-chloro-6-fluorophenyl)methoxy]-1H,2H,3H,3aH,4H,5H,9bH-benzo[e]indole-3-carbonyl]-1λ^6-thiane-1,1-dione]	0.0071 µM
Cc1ccccc1COc1ccc2c(c1)CC[C@H]1N(C(=O)C3CCS(=O)(=O)CC3)CC[C@@]21S(=O)(=O)c1ccccc1 [Example 124, 4-[(3aR,9bR)-9b-(benzenesulfonyl)-7-[(2-methylphenyl)methoxy]-1H,2H,3H,3aH,4H,5H,9bH-benzo[e]indole-3-carbonyl]-1λ^6-thiane-1,1-dione]	0.034 µM
O=C(C1CCS(=O)(=O)CC1)N1CC[C@@]2(S(=O)(=O)c3ccccc3)c3ccc(OCC4CCCCC4)cc3CC[C@@H]12 [Example 125, 4-[(3aR,9bR)-9b-(benzenesulfonyl)-7-(cyclohexylmethoxy)-1H,2H,3H,3aH,4H,5H,9bH-benzo[e]indole-3-carbonyl]-1λ^6-thiane-1,1-dione]	0.024 µM
